Patent US20120225076A1, “FRA-1 TARGET GENES AS DRUG TARGETS FOR TREATING CANCER” (priority 2009, published 2012)
Counter-ions that a name gives are not always drawn. Like-named read-outs stand apart in the source and are kept apart here. Numbered stars: 1 amine (or outer) side, 2 acyl side, 3 side chain; on linkers, the order of the positions; unused ones are H or OH. Bridge positions count the residues as written; N and C are the ends. Square brackets hold non-standard residues; d marks the D form. Peptide text beside a SMILES is read from it. Adda = CO[C@@H](Cc1ccccc1)[C@@H](C)/C=C(C)/C=C/[C@H](N[*:1])[C@H](C)C(=O)[*:2]; dAsp(3S-Me) = C[C@H](C(=O)[*:3])[C@@H](N[*:1])C(=O)[*:2]; d(γGlu) = O=C(O)[C@@H](CCC(=O)[*:2])N[*:1]; NMeDha = C=C(NC)C(=O)O

Columns and labels:
Aurora kinase B = Aurora kinase B (Homo sapiens, UniProt Q96GD4); settings: description of known inhibitor; cited from earlier work
Sequence of Aurora kinase B (Q96GD4 whole entry): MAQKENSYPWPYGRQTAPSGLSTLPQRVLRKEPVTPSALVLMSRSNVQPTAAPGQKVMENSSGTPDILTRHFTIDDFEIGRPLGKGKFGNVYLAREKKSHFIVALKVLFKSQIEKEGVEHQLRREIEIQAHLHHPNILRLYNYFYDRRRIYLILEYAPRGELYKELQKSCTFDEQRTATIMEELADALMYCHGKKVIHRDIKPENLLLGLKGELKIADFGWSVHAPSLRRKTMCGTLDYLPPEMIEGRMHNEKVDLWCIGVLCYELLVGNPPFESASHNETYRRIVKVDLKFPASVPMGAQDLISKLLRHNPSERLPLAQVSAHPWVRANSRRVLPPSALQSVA

[1] = test system: breast cancer cells expressing high levels of Fra-1
PP2A = settings: cited from earlier work
PP1 = settings: cited from earlier work
E2F1-DNA complex = E2F1-DNA complex (Homo sapiens, UniProt Q01094); settings: description of known inhibitor; cited from earlier work
Sequence of E2F1-DNA complex (Q01094 whole entry, one chain of several): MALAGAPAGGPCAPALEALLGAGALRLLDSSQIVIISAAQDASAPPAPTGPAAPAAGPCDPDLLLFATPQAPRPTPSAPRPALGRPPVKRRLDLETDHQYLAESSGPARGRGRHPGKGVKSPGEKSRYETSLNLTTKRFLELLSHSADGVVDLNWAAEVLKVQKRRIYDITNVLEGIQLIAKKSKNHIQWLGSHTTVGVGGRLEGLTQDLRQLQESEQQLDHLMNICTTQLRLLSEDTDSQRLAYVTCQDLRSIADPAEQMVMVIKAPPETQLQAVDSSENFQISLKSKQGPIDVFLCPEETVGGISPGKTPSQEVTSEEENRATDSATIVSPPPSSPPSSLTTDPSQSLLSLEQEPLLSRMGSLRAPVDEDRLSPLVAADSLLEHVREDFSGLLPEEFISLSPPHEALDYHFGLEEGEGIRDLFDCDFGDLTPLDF

PP4 = PP4 (Homo sapiens, UniProt P60510); settings: description of known inhibitor; cited from earlier work
Sequence of PP4 (P60510 whole entry): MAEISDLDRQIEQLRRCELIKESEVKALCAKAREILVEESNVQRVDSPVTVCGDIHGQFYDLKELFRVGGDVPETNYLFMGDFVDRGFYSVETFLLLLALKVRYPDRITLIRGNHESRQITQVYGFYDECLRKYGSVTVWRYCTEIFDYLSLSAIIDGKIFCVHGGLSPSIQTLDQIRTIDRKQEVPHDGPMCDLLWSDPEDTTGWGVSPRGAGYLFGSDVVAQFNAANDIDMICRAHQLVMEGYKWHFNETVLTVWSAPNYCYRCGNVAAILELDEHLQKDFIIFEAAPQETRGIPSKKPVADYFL

Adenosine A2b receptor = Adenosine A2b receptor (Homo sapiens, UniProt P29275); settings: description of known inhibitor; cited from earlier work
Sequence of Adenosine A2b receptor (P29275 whole entry): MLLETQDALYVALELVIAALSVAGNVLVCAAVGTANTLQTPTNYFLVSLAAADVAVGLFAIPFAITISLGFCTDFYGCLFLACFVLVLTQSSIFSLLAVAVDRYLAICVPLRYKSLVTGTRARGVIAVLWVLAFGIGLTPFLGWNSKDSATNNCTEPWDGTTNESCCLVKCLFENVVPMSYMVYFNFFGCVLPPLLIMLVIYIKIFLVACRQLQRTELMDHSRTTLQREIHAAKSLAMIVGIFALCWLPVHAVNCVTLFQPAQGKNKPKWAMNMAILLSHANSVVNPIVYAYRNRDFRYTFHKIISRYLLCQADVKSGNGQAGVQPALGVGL

PRLs = settings: cited from earlier work

Question: For `CCN(CCCOc1ccc2c(Nc3cc(CC(=O)Nc4cccc(F)c4)n[nH]3)ncnc2c1)CCOP(=O)(O)O` [AZD1152], which “inhibition of Aurora kinase B” value (Aurora kinase B) is on record?
Answer: The value was “selective inhibitor”.

Question: Which “cytotoxicity for breast cancer cells expressing high levels of Fra-1” value [1] does the source give for `Nc1nc2ccc(Cl)cc2c2nc(-c3ccco3)nn12` [CGS-15953] here?
Answer: Its value is “*In an in vitro drug screen with the LOPAC library, we identified those two ADORA2B inhibitors as being selectively cytotoxic for breast cancer cells expressing high levels of Fra-1”.

Question: With `COC[C@@H]([C@H](O)[C@H](O)C(=O)NCC[C@H](C)c1nc(/C=C/C[C@@H]2O[C@]3(C[C@@H](O)[C@@H]2C)O[C@H]([C@H](C[C@H](O)[C@H](C)[C@H](O)[C@H](C)/C=C(C)/C(C)=C/C=C/C(C)=C\C#N)OC)[C@H](OP(=O)(O)O)C3(C)C)co1)N(C)C` [Calyculin A] as the compound, how does the “potency for PP2A” value (PP2A; description of known inhibitor) read?
Answer: The value was “high potency for PP2A, low potency for PP1”.

Question: And the “potency for PP1” value (PP1)?
Answer: Its value is “high potency for PP2A, low potency for PP1”.

Question: For `C[C@@]12C(=O)OC(=O)[C@]1(C)[C@H]1CC[C@@H]2O1` [Candharidin], which “potency for PP2A” value (PP2A; description of known inhibitor) is on record?
Answer: Its value is “selective inhibitor of PP2A”.

Question: With `CC1(C(=O)O)C2CCC(O2)C1(C)C(=O)O` (centres unmarked) [Cantharidic acid] as the compound, how does the “potency for PP2A” value (PP2A) read?
Answer: Its value is “inhibits PP2A and PP1 (for use in protein purification)”.

Question: What about the “potency for PP1” value (PP1) of the same compound?
Answer: Its value is “inhibits PP2A and PP1 (for use in protein purification)”.

Question: For `Cn1cc(NC(=O)c2cc(NC(=O)c3cc(NC=O)cn3C)cn2C)cc1C(=O)NCCC(=N)N` [Distamycin], which “inhibition of E2F1-DNA complex” value (E2F1-DNA complex) is on record?
Answer: The value was “specifically inhibits E2F1-DNA complex”.

Question: With `O=C(O)[C@@H]1[C@H](C(=O)O)[C@H]2CC[C@@H]1O2` [Endothall] as the compound, how does the “potency for PP2A” value (PP2A; description of known inhibitor) read?
Answer: The value was “intermediate potency for PP2A”.

Question: With `C[C@@](O)(/C=C/[C@H]1CC=CC(=O)O1)[C@@H](C[C@@H](O)\C=C/C=C\C=C\CO)OP(=O)(O)O` [Fostriecin sodium salt] as the compound, how does the “potency for PP2A” value (PP2A; description of known inhibitor) read?
Answer: Its value is “potent inhibitors for PP2A and PP4”.

Question: And the “potency for PP4” value (PP4)?
Answer: Its value is “potent inhibitors for PP2A and PP4”.

Question: Which “potency for PP2A compared to PP1” value (PP2A) does the source give for `C=C1C(=O)N[C@H](C)C(=O)N[C@@H](CC(C)C)C(=O)N[C@@H](C(=O)O)[C@H](C)C(=O)N[C@@H](CCCNC(=N)N)C(=O)N[C@@H](/C=C/C(C)=C/[C@H](C)[C@H](Cc2ccccc2)OC)[C@H](C)C(=O)N[C@@H](C(=O)O)CCC(=O)N1C` [Microcystin LR] (R[Adda][d(γGlu)][NMeDha][dA]L[dAsp(3S-Me)]-OH; lactam N-7) here?
Answer: Its value is “more potent for PP2A when compared to PP1”.

Question: What does the source list for `C=C1[C@@H](O)[C@@H]2O[C@]3(CC[C@H](/C=C/[C@@H](C)[C@@H]4CC(C)=C[C@@]5(O[C@H](C[C@@](C)(O)C(=O)O)CC[C@H]5O)O4)O3)CC[C@H]2O[C@@H]1[C@@H](O)C[C@H](C)[C@H]1O[C@@]2(CCCCO2)CC[C@H]1C` [Okadaic acid]?
Answer: inhibition of PP2A (PP2A; at 1 nM): completely inhibits PP2A at 1 nM (less potent for PP1); potency for PP1 (PP1): completely inhibits PP2A at 1 nM (less potent for PP1)

Question: For `CCCn1c(=O)[nH]c2nc(-c3ccc(S(=O)(=O)N4CCN(Cc5ccccc5)CC4)cc3)[nH]c2c1=O` [PSB601], which “antagonism of adenosine A2b receptor” value (Adenosine A2b receptor) is on record?
Answer: The value was “specific antagonist”.

Question: With `N=C(N)c1ccc(OCCCCCOc2ccc(C(=N)N)cc2)cc1` [Pentamidine] as the compound, how does the “inhibition of PRLs” value (PRLs) read?
Answer: The value was “inhibits all PRLs”.

Question: Which “potency for PP2A compared to PP1” value (PP2A; PP2A versus PP1) does the source give for Toutomycin here?
Answer: Its value is “more potent for PP1, less for PP2A”.
